Results from ChEMBL document CHEMBL1201862, “PubChem BioAssay data set” (2004).
Active and inactive are the calls of the source.

What was measured:
[1] = molecular target: T1, Orexin/Hypocretin receptor type 1 (Homo sapiens, UniProt O43613); assay: Fluorescence-based cell-based high throughput dose response assay for antagonists of the orexin 1 receptor (OX1R; HCRTR1). [Related pubchem assays (depositor defined):AID434989, AID435008, AID463079, AID485270, AID492963, AID492964, AID492965, AID493232, AID504717, AID504718]; assay type: functional
T1 sequence (O43613 whole entry): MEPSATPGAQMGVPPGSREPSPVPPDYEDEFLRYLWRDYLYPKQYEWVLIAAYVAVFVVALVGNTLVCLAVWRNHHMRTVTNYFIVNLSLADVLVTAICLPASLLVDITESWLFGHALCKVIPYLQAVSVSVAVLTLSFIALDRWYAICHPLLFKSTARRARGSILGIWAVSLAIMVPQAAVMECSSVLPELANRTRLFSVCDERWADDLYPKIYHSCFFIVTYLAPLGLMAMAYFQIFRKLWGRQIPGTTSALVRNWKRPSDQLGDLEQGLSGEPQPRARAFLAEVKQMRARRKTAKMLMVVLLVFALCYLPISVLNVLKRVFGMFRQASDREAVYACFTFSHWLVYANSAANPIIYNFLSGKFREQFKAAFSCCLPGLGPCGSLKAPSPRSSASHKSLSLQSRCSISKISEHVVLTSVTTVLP

CHO-K1 = assay: Counterscreen for antagonists of the orexin 1 receptor (OX1R; HCRTR1): Homogeneous time resolved fluorescence (HTRF)-based cell-based dose response assay to identify antagonists of the parental CHO-K1 cell line. [Related pubchem assays (depositor defined):AID434989, AID435008, AID463079, AID485270, AID492963, AID492964, AID492965, AID493232, AID504699, AID504701]; assay type: functional; details: Cricetulus griseus
[2] = Counterscreen for antagonists of the orexin 1 receptor (OX1R; HCRTR1): Fluorescence-based cell-based high throughput dose response assay to identify antagonists of the parental CHO cell line. [Related pubchem assays (depositor defined):AID434989, AID435008, AID463079, AID485270, AID492963, AID492964, AID492965, AID493232, AID504699, AID504701]; assay type: functional
Orexin receptor type 2 [3] = molecular target: T2, Orexin receptor type 2 (Homo sapiens, UniProt O43614); assay: Counterscreen assay for antagonists of the orexin 1 receptor (OX1R; HCRTR1): Fluorescence-based cell-based dose response assay for antagonists of the orexin 2 receptor (OX2R; HCRTR2), run by assay provider.; assay type: functional
T2 sequence (O43614 whole entry): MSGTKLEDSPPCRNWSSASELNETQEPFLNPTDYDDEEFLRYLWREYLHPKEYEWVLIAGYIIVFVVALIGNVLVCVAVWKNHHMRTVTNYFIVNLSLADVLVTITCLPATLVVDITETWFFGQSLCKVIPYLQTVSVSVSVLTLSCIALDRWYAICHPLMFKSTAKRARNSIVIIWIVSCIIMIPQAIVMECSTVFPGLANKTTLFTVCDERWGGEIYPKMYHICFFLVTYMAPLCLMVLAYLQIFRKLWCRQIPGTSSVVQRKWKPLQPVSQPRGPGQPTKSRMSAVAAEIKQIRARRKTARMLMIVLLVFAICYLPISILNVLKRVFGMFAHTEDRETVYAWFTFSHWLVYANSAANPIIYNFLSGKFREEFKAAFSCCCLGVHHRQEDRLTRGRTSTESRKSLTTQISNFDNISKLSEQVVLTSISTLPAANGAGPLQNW

Orexin receptor type 2 [4] = molecular target: T2, Orexin receptor type 2; assay: Counterscreen assay for antagonists of the orexin 1 receptor (OX1R; HCRTR1): Homogeneous Time Resolved Fluorescence (HTRF)-based cell-based dose response assay for antagonists of the orexin 2 receptor (OX2R; HCRTR2), run by assay provider.; assay type: functional
[5] = molecular target: T1, Orexin/Hypocretin receptor type 1; assay: Homogeneous Time Resolved Fluorescence (HTRF)-based cell-based high throughput dose response assay for antagonists of the orexin 1 receptor (OX1R; HCRTR1). [Related pubchem assays (depositor defined):AID434989, AID435008, AID463079, AID485270, AID492963, AID492964, AID492965, AID493232, AID504717, AID504718]; assay type: functional
[6] = molecular target: T3, Mitochondrial peptide methionine sulfoxide reductase (Bos taurus, UniProt P54149); assay type: functional;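 further: absorbance read-out, biochemical high-throughput dose-response screen for MsrA inhibitors, confirmatory; recombinant bovine MsrA coupled to E. coli TrxB with NADPH and selenocystamine; potency is for inhibitors of MsrA activity on DMSO substrate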
T3 sequence (P54149 whole entry): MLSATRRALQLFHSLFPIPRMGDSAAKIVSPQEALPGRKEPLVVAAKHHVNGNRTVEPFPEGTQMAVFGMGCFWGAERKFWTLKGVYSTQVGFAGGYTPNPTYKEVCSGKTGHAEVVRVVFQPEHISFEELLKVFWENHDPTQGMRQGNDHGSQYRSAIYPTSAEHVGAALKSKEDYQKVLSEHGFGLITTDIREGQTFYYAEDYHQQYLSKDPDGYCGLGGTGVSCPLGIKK

[7] = molecular target: T4, Neuropeptide Y receptor type 1 (Homo sapiens, UniProt P25929); assay type: functional;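 further: HEK293 cells with a CNG channel challenged with NPY then isoproterenol; potency as antagonist that reverses NPY suppression of cAMP signal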
T4 sequence (P25929 whole entry): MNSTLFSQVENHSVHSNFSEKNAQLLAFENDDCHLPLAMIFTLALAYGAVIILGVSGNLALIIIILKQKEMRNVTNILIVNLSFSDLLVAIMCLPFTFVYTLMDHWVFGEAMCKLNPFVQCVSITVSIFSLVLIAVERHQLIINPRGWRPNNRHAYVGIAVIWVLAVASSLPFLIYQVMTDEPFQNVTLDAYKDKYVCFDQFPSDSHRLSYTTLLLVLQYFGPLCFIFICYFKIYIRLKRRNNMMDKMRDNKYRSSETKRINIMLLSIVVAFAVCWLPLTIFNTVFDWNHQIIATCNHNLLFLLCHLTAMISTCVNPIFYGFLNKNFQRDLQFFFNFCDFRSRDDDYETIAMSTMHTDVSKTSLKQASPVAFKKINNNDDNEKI

[8] = molecular target: T5, Neuropeptide Y receptor type 2 (Homo sapiens, UniProt P49146); assay type: functional, cell-based;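 further: HEK293 cells expressing the receptor and a CNG channel; stimulus was NPY near EC95 followed by isoproterenol to raise cAMP; antagonist potency measured as restoring cAMP signal that NPY suppresses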
T5 sequence (P49146 whole entry): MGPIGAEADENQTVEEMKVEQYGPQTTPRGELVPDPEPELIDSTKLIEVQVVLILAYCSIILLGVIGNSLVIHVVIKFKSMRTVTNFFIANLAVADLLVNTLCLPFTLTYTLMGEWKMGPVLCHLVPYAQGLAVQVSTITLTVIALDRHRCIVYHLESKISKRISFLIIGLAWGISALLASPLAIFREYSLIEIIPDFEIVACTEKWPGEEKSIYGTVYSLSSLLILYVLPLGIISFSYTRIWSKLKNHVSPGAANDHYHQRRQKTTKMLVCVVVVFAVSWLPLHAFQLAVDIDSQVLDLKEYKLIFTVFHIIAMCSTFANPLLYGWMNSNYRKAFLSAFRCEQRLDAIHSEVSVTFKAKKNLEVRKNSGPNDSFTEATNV

[9] = molecular target: T6, Sentrin-specific protease 1 (Homo sapiens, UniProt Q9P0U3); assay: Dose response confirmation of small molecule inhibitors of the catalytic domain of the SUMO protease, SENP1 in a FRET assay.; assay type: functional; details: read-out: IC50_Mean
T6 sequence (Q9P0U3 whole entry): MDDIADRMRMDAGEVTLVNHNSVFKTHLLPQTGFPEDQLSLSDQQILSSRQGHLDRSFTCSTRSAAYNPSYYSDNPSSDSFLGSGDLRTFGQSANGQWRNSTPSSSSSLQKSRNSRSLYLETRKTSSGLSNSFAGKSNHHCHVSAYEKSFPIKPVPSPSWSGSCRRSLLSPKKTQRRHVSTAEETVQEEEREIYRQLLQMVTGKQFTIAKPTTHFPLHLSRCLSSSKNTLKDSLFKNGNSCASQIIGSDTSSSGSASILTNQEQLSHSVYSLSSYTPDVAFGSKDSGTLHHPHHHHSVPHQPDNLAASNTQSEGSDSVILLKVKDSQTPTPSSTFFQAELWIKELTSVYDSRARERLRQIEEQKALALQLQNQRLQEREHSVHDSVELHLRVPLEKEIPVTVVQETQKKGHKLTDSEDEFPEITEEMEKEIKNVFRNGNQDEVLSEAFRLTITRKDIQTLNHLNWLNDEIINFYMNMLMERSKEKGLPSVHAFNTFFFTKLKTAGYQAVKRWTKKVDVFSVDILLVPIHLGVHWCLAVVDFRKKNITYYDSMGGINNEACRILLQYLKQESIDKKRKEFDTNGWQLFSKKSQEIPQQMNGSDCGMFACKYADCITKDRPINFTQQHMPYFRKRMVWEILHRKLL

[10] = molecular target: T6, Sentrin-specific protease 1; assay: potency of human SENP1 inhibitors, dose response, biochemical, kinetic FRET (AID 651697); assay type: functional; details: read-out: IC50_Mean
[11] = molecular target: T7, ATP-dependent translocase ABCB1 (Homo sapiens, UniProt P08183); assay: ABCG2 efflux pump inhibitor potency, dose response, Ig-MXP3 cells, JC-1, flow cytometry, set 2 (AID 504566); assay type: functional; details: read-out: EC50_MICROM_;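 further: flow cytometry median green fluorescence of retained JC-1 dye; potency of efflux pump inhibition measured as rising substrate retention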
[12] = molecular target: T7, ATP-dependent translocase ABCB1; assay: ABCB1 efflux inhibitor potency, dose response, Jurkat-DNR cells, JC-1, flow cytometry, set 2 (AID 504569); assay type: functional; details: read-out: EC50_MICROM_;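 further: potency of pump inhibitors that raise cellular JC-1 green fluorescence up to the nicardipine level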
[13] = molecular target: T8, Low molecular weight phosphotyrosine protein phosphatase (Homo sapiens, UniProt P24666); assay type: functional; details: read-out: IC50_Mean
[14] = molecular target: T8, Low molecular weight phosphotyrosine protein phosphatase; assay type: functional; details: read-out: IC50_Mean; remark: listed apart in the source
[15] = molecular target: Ras and Rab interactor 1/Tyrosine-protein kinase ABL1 (Homo sapiens, UniProt P00519+Q13671); assay type: functional;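 further: biochemical TR-FRET dose-response test measuring inhibition of binding between Rin1 and Abl proteins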
[16] = inhibitors of firefly luciferase expression or activity, dose response, H4 neuroglioma cells, luminescence (AID 1990); assay type: functional, cell-based
[17] = molecular target: T9, Heat shock factor protein 1 (Mus musculus, UniProt P38532); assay: inhibition of MG132-induced HSE-luciferase signal, confirmation, cell-based, NIH3T3, luminescence, dose retest (AID 2382); assay type: functional;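 further: NIH3T3 fibroblasts with HSF1-driven luciferase reporter stressed by proteasome inhibitor MG132; luminescence from HSF1-driven luciferase expression after 8 hours of MG132 stress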
T9 sequence (P38532 whole entry): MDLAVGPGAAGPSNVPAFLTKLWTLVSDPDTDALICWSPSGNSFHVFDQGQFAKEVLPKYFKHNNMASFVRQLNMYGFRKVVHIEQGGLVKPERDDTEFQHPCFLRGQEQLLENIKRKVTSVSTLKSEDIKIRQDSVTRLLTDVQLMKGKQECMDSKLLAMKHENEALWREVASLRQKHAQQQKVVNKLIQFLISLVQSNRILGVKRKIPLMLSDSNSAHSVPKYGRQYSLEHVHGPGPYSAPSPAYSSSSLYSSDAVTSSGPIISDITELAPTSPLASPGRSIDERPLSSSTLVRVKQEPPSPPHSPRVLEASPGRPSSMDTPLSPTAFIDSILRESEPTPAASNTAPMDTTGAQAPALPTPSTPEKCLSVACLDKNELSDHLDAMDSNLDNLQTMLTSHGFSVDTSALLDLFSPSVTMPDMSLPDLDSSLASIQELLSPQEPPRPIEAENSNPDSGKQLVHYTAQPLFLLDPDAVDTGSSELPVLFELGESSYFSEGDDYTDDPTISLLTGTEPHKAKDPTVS

[18] = inhibitors of SNCA 5'UTR-driven reporter translation, confirmation, H4 neuroglioma cells, luminescence (AID 1988); assay type: functional, cell-based
[19] = Luminescence Cell-Based Dose Response HTS to Identify Inhibitors of 5'UTR Stem-Loop Driven Prion Protein mRNA Translation in H4 Neuroglioblastoma Cells. [Related pubchem assays: 1827 (Project Summary), 1813 (Primary HTS)]; assay type: functional
[20] = HEp-2 cell cytotoxicity, dose response, cytotoxicity control for RSV inhibitor project, HTS (AID 2410); assay type: functional; details: human respiratory syncytial virus
Protein Wnt-3a = Protein Wnt-3a (Mus musculus, UniProt P27467); assay: Wnt3a-driven reporter signaling inhibition, dose response, selectivity assay for Gli-SUFU antagonist project, Wnt-LIGHT cells, luminescence (AID 651570); assay type: functional; details: read-out: IC50_Mean;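 further: Wnt-LIGHT reporter cells stimulated with conditioned medium from Wnt3a-producing cells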
Chain of Protein Wnt-3a (P27467 whole entry): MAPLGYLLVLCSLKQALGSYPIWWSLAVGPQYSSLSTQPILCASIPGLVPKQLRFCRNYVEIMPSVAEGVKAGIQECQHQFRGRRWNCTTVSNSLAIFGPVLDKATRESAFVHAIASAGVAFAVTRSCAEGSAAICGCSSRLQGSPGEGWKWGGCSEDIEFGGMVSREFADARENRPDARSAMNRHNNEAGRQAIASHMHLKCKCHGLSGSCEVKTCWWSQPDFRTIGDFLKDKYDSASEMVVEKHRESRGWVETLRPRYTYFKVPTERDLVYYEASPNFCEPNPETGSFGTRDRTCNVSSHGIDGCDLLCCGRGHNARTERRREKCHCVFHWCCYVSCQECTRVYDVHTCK

T7 sequence (P08183 whole entry): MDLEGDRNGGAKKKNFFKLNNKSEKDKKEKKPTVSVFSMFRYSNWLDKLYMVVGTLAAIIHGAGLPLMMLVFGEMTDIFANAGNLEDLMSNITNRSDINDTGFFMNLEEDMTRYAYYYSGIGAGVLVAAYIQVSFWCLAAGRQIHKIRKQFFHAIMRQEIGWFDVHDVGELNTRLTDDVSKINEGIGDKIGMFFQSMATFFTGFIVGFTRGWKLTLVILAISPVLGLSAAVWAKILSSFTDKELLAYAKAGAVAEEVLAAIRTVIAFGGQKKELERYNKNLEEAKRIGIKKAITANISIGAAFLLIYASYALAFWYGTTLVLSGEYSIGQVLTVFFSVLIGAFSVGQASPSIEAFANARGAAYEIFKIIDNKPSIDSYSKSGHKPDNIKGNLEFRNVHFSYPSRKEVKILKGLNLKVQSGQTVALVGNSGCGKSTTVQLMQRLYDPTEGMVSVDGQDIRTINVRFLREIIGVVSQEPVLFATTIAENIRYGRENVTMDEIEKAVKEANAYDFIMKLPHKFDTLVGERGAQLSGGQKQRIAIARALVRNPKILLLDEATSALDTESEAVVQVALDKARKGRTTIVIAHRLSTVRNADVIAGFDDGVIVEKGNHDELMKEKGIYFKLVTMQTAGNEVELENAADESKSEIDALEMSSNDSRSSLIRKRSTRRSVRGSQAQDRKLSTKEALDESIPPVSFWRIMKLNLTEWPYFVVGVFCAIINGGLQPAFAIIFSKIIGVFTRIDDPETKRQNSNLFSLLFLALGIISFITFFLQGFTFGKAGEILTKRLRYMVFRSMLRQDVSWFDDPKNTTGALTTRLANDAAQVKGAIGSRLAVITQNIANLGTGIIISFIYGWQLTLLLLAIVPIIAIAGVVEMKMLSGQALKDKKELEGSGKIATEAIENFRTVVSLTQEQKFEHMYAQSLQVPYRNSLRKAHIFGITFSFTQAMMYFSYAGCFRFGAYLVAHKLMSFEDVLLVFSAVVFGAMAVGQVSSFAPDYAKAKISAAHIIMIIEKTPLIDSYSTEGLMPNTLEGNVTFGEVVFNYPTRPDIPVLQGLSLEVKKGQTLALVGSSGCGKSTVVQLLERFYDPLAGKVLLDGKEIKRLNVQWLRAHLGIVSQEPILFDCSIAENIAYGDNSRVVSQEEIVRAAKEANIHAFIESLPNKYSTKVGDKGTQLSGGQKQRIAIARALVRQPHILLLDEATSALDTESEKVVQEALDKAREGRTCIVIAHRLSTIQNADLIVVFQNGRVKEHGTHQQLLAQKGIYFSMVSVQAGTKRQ
T8 sequence (P24666 whole entry): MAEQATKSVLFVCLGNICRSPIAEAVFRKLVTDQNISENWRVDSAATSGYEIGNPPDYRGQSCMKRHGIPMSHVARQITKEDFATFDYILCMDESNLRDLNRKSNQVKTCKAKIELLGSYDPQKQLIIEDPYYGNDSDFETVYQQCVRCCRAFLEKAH
Chain of Ras and Rab interactor 1/Tyrosine-protein kinase ABL1 (P00519 whole entry): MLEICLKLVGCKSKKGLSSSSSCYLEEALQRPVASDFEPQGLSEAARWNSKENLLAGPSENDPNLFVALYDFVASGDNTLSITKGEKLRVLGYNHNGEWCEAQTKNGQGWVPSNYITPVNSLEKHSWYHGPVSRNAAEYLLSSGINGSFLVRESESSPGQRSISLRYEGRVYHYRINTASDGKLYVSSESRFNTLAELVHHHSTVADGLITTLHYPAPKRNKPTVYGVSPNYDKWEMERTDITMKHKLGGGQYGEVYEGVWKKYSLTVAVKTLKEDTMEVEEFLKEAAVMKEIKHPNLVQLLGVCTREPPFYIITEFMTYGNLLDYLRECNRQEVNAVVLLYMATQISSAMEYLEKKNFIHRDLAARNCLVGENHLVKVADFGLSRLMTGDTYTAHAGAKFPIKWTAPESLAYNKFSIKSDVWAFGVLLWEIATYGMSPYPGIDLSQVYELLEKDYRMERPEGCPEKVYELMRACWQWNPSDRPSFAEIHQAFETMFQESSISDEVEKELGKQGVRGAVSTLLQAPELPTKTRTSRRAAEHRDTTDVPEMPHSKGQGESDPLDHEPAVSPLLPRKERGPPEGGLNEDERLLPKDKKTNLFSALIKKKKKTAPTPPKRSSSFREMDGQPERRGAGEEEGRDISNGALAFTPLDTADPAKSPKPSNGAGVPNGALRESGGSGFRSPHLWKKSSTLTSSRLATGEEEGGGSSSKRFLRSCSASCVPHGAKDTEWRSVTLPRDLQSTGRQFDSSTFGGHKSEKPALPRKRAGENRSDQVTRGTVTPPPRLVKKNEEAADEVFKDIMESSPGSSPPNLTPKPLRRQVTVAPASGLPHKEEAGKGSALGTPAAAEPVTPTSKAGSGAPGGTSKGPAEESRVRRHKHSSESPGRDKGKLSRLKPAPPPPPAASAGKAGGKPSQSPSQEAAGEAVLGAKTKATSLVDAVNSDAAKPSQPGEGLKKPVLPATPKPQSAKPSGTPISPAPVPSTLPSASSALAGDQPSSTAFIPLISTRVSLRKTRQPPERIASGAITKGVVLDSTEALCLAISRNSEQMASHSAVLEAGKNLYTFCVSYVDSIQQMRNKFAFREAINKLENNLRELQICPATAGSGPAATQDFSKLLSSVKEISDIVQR
Chain of Ras and Rab interactor 1/Tyrosine-protein kinase ABL1 (Q13671 whole entry): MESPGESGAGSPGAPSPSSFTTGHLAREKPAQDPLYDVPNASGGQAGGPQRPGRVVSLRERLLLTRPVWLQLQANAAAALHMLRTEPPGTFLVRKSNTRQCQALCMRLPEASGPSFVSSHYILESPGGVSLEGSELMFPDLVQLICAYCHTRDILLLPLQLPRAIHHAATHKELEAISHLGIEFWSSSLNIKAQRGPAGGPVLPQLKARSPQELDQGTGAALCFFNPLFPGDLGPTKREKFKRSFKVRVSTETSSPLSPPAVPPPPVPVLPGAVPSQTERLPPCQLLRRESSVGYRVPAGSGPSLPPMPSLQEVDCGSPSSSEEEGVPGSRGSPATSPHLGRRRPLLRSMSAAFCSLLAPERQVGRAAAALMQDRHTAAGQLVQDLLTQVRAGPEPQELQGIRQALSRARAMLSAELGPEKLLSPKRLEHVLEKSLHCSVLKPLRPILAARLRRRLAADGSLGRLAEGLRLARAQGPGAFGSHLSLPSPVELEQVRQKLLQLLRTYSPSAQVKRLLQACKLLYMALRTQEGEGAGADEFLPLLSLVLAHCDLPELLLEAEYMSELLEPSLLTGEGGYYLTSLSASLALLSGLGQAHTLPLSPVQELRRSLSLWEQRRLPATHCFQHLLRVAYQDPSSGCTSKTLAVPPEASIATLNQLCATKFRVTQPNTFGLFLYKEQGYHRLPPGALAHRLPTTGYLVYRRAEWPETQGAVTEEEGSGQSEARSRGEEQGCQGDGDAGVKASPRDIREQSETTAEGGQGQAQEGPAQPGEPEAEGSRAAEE

## Cc1ccc(C)c(NP(=O)(Oc2ccccc2)Oc2ccccc2)c1
[1]
  IC50: 26.3 µM (inactive)
CHO-K1
  IC50: > 66.2 µM (inactive)
[2]
  IC50: 49 µM (inactive)
Orexin receptor type 2 [3]
  IC50: > 88.8 µM (inactive)
Orexin receptor type 2 [4]
  IC50: > 50 µM (inactive)
[5]
  IC50: 5.47 µM (active)

## CCc1nnc(S)n1/N=C/c1cc(Br)c(OC)cc1OC
[6]
  IC50: 155 µM (inactive)
[7]
  IC50: > 35 µM (not active)
[8]
  IC50: > 35 µM (not active)

## CCc1nnc(NC(=O)CCN2C(=O)/C(=C/c3cc(OC)c(OC)c(OC)c3)SC2=S)s1
[9]
  IC50: 13.3 µM (active)
[10]
  IC50: 29.9 µM (inactive)

## CC(C)(C)c1cc2nc(C(F)(F)F)cc(N3CCN(C(=O)c4cccs4)CC3)n2n1
[11]
  EC50: 1.59 µM (active)
[12]
  EC50: 6.06 µM (active)

## Oc1c2c(nc3cc(-c4ccc(Cl)cc4)nn13)CCS2
[13]
  IC50: 13.4 µM (active)
[14]
  IC50: 16.3 µM (active)

## Cc1cc(S(=O)(=O)N2CCN(C(=O)CCC(=O)N3CCOCC3)CC2)ccc1Br
[15]
  IC50: 21.5 µM (inactive)

## Cc1nc2c(ccc3nc(NC(=O)Cc4cccc5ccccc45)sc32)s1
[16]
  EC50: 16.3 µM (active)
[1]
  IC50: 5.34 µM (active)
[17]
  EC50: > 195 µM (not active)
CHO-K1
  IC50: > 66.2 µM (inactive)
[2]
  IC50: > 49.7 µM (inactive)
[18]
  EC50: > 60 µM (not active)
[19]
  EC50: > 120 µM (not active)
[20]
  CC50: 12.2 µM (active)
Orexin receptor type 2 [3]
  IC50: 17.6 µM (inactive)
Orexin receptor type 2 [4]
  IC50: > 50 µM (inactive)
[5]
  IC50: 1.45 µM (active)

## Cc1ccc2c(c1)c(C)cc[n+]2Cc1ccccc1
Protein Wnt-3a
  IC50: 15.3 µM (active)
